# Biological target: T1, Gaussia luciferase (GLuc) (Gaussia princeps (in: crustaceans), UniProt Q9BLZ2)
# T1 sequence (Q9BLZ2 18-185): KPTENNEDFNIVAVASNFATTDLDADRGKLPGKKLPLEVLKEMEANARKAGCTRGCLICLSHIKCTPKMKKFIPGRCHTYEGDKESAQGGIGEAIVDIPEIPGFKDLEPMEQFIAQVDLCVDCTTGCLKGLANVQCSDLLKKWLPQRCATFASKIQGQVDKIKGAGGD
# Assay: SDS-PAGE adduct formation
# Format: biochemical
# Conditions: suicide inhibitor, covalent; oxidized without light; 20-fold molar excess, up to 24 h; 50 mM Tris-HCl pH 8.0
smiles,measurement,value
O=c1c(Cc2ccco2)nc2c(Cc3ccccc3)[nH]c(-c3ccccc3)cn1-2 [furimazine],SDS-PAGE adduct formation; loss of luminescence with coelenterazine,FRZ is a suicide inhibitor of GLuc as it does not produce light with GLuc

# From PMC11255867 (Protein Science : A Publication of the Protein Society, 2024)
